Format in all cases: functional
One assay has as its system Candida albicans. As to the kind of experiment: Antifungal activity against Candida albicans.
The subject of a further assay is Candida parapsilosis. In words: Antifungal activity against Candida parapsilosis. Conditions: Lodderomyces parapsilosis.
In a further assay the test system is Candida tropicalis. As to the kind of experiment: Antifungal activity against Candida tropicalis.
Another assay has as its system Cryptococcus neoformans. As to the kind of experiment: Antifungal activity against Cryptococcus neoformans.
A further assay deals with Aspergillus fumigatus. In words: Antifungal activity against Aspergillus fumigatus.
A further assay deals with Fonsecaea pedrosoi. In words: Antifungal activity against Fonsecaea pedrosoi.
Another assay concerns Trichophyton rubrum. As to the kind of experiment: Antifungal activity against Trichophyton rubrum.
In the next assay the test system is Sporothrix schenckii. As to the kind of experiment: Antifungal activity against Sporothrix schenckii.
Another assay relates to Microsporum. As to the kind of experiment: Antifungal activity against Microsporum lanosum.

In brackets after ≈: the same amount, converted by molar mass.

As to `Cc1ccc(C(=O)Cn2ncn(-c3ccc(CN(C)CC(O)(Cn4cncn4)c4ccc(F)cc4F)cc3)c2=O)cc1` (stereo unspecified), the MIC80 (commonly an inhibitory concentration at the 80% level, which refers to growth in some studies and to a panel of isolates in others) in the assay with Candida albicans worked out at 0.002 µg/mL (≈ 0.00349 µM); against Candida parapsilosis, 0.008 µg/mL (≈ 0.0139 µM); in the assay on Candida tropicalis it was 0.0312 µg/mL (≈ 0.0545 µM); against Cryptococcus neoformans it was 0.125 µg/mL (≈ 0.218 µM); against Aspergillus fumigatus, 16 µg/mL (≈ 27.9 µM); against Fonsecaea pedrosoi, 0.125 µg/mL (≈ 0.218 µM). In addition, the MIC80 turned out to be 1 µg/mL (≈ 1.74 µM) against Trichophyton rubrum and 64 µg/mL (≈ 112 µM) against Sporothrix schenckii.

Take `CN(Cc1ccc(-n2cnn(CC(=O)c3ccc(Cl)cc3Cl)c2=O)cc1)CC(O)(Cn1cncn1)c1ccc(F)cc1F` (stereo unspecified): the MIC80 in the assay with Candida albicans was determined as 0.031 µg/mL (≈ 0.0493 µM); against Candida parapsilosis, 1 µg/mL (≈ 1.59 µM); against Candida tropicalis, 0.125 µg/mL (≈ 0.199 µM); against Cryptococcus neoformans, 16 µg/mL (≈ 25.5 µM); in the assay on Aspergillus fumigatus, 64 µg/mL (≈ 102 µM); in the assay on Fonsecaea pedrosoi, 4 µg/mL (≈ 6.36 µM). For the same molecule, the MIC80 in the assay with Trichophyton rubrum stood at 32 µg/mL (≈ 50.9 µM); with Sporothrix schenckii, 64 µg/mL (≈ 102 µM).

Regarding `CN(Cc1ccc(NC(=O)c2ccccc2)cc1)CC(O)(Cn1cncn1)c1ccc(F)cc1F` (stereo unspecified), the MIC80 in the assay on Candida albicans came to 0.031 µg/mL (≈ 0.0649 µM); in the assay on Candida parapsilosis, 0.0625 µg/mL (≈ 0.131 µM); in the assay with Candida tropicalis, 0.125 µg/mL (≈ 0.262 µM); with Cryptococcus neoformans, 1 µg/mL (≈ 2.09 µM); with Aspergillus fumigatus, 32 µg/mL (≈ 67 µM); in the assay on Fonsecaea pedrosoi, 1 µg/mL (≈ 2.09 µM). Besides, the figures for the MIC80 in the assay with Trichophyton rubrum and with Microsporum were 0.5 µg/mL (≈ 1.05 µM) and 4 µg/mL (≈ 8.38 µM), respectively.

Consider `CN(Cc1ccc(-n2cnn(Cc3ccc([N+](=O)[O-])cc3)c2=O)cc1)CC(O)(Cn1cncn1)c1ccc(F)cc1F` (stereo unspecified), for which the MIC80 was found to be 0.0625 µg/mL (≈ 0.108 µM) in the assay on Candida albicans; 0.25 µg/mL (≈ 0.434 µM) with Candida parapsilosis; 0.0625 µg/mL (≈ 0.108 µM) in the assay with Candida tropicalis; 16 µg/mL (≈ 27.8 µM) with Cryptococcus neoformans; 64 µg/mL (≈ 111 µM) in the assay with Aspergillus fumigatus; 4 µg/mL (≈ 6.94 µM) with Fonsecaea pedrosoi. For the same molecule, the values for the MIC80 in the assay on Trichophyton rubrum and in the assay with Sporothrix schenckii were 16 µg/mL (≈ 27.8 µM) and 64 µg/mL (≈ 111 µM), respectively.

With `Cc1cccc(Cn2ncn(-c3ccc(CN(C)CC(O)(Cn4cncn4)c4ccc(F)cc4F)cc3)c2=O)c1` (stereo unspecified), the MIC80 against Candida albicans turned out to be 0.004 µg/mL (≈ 0.00733 µM); in the assay on Candida parapsilosis it was 0.008 µg/mL (≈ 0.0147 µM); in the assay with Candida tropicalis, 0.125 µg/mL (≈ 0.229 µM); against Cryptococcus neoformans it was 1 µg/mL (≈ 1.83 µM); with Aspergillus fumigatus, 16 µg/mL (≈ 29.3 µM); in the assay with Fonsecaea pedrosoi, 1.25 µg/mL (≈ 2.29 µM). Besides, the MIC80 with Trichophyton rubrum worked out at 0.5 µg/mL (≈ 0.916 µM); against Sporothrix schenckii, 64 µg/mL (≈ 117 µM).

Consider `CN(Cc1ccc(-n2cnn(Cc3ccc(OC(F)(F)F)cc3)c2=O)cc1)CC(O)(Cn1cncn1)c1ccc(F)cc1F` (stereo unspecified), for which the MIC80 worked out at 0.002 µg/mL (≈ 0.00325 µM) with Candida albicans; 0.008 µg/mL (≈ 0.013 µM) with Candida parapsilosis; 0.0312 µg/mL (≈ 0.0508 µM) in the assay with Candida tropicalis; 0.016 µg/mL (≈ 0.026 µM) against Cryptococcus neoformans; 8 µg/mL (≈ 13 µM) against Aspergillus fumigatus; 0.125 µg/mL (≈ 0.203 µM) against Fonsecaea pedrosoi. Besides, the MIC80 in the assay on Trichophyton rubrum amounted to 0.25 µg/mL (≈ 0.406 µM); with Sporothrix schenckii, 32 µg/mL (≈ 52 µM).

In the case of `CN(Cc1ccc(-n2cnn(Cc3ccccc3Cl)c2=O)cc1)CC(O)(Cn1cncn1)c1ccc(F)cc1F` (stereo unspecified), the MIC80 with Candida albicans was 0.004 µg/mL (≈ 0.00707 µM); against Candida parapsilosis, 0.06 µg/mL (≈ 0.106 µM); in the assay with Candida tropicalis, 0.125 µg/mL (≈ 0.221 µM); against Cryptococcus neoformans, 1 µg/mL (≈ 1.77 µM); with Aspergillus fumigatus, 32 µg/mL (≈ 56.5 µM); against Fonsecaea pedrosoi, 0.5 µg/mL (≈ 0.883 µM). Besides, the MIC80 in the assay on Trichophyton rubrum was found to be 4 µg/mL (≈ 7.07 µM); in the assay with Sporothrix schenckii, 32 µg/mL (≈ 56.5 µM).

`CN(Cc1ccc(-n2cnn(Cc3ccccc3F)c2=O)cc1)CC(O)(Cn1cncn1)c1ccc(F)cc1F` (stereo unspecified): the MIC80 was 0.031 µg/mL (≈ 0.0564 µM) against Candida albicans; 2 µg/mL (≈ 3.64 µM) with Candida parapsilosis; 0.0625 µg/mL (≈ 0.114 µM) in the assay on Candida tropicalis; 1 µg/mL (≈ 1.82 µM) against Cryptococcus neoformans; 32 µg/mL (≈ 58.2 µM) against Aspergillus fumigatus; 0.0625 µg/mL (≈ 0.114 µM) in the assay with Fonsecaea pedrosoi. Moreover, the MIC80 turned out to be 1 µg/mL (≈ 1.82 µM) with Trichophyton rubrum and 64 µg/mL (≈ 116 µM) in the assay on Sporothrix schenckii.

`CN(Cc1ccc(-n2cnn(Cc3cccc(I)c3)c2=O)cc1)CC(O)(Cn1cncn1)c1ccc(F)cc1F` (stereo unspecified): the MIC80 in the assay with Candida albicans stood at 0.002 µg/mL (≈ 0.00304 µM); in the assay with Candida parapsilosis, 0.008 µg/mL (≈ 0.0122 µM); in the assay with Candida tropicalis, 0.0625 µg/mL (≈ 0.0951 µM); in the assay on Cryptococcus neoformans it was 0.25 µg/mL (≈ 0.38 µM); with Aspergillus fumigatus it was 2 µg/mL (≈ 3.04 µM); against Fonsecaea pedrosoi, 0.0625 µg/mL (≈ 0.0951 µM). The MIC80 against Trichophyton rubrum was found to be 0.25 µg/mL (≈ 0.38 µM); against Sporothrix schenckii, 64 µg/mL (≈ 97.3 µM).

As to `CN(Cc1ccc(-n2cnn(Cc3ccc(F)cc3)c2=O)cc1)CC(O)(Cn1cncn1)c1ccc(F)cc1F` (stereo unspecified), the MIC80 against Candida albicans turned out to be 0.004 µg/mL (≈ 0.00728 µM); against Candida parapsilosis, 4 µg/mL (≈ 7.28 µM); in the assay with Candida tropicalis, 1 µg/mL (≈ 1.82 µM); in the assay with Cryptococcus neoformans, 4 µg/mL (≈ 7.28 µM); in the assay with Aspergillus fumigatus it was 64 µg/mL (≈ 116 µM); in the assay on Fonsecaea pedrosoi, 1 µg/mL (≈ 1.82 µM). For the same molecule, the MIC80 against Trichophyton rubrum is 8 µg/mL (≈ 14.6 µM); in the assay with Sporothrix schenckii, 32 µg/mL (≈ 58.2 µM).

In the case of `CN(Cc1ccc(-n2cnn(Cc3ccccc3)c2=O)cc1)CC(O)(Cn1cncn1)c1ccc(F)cc1F` (stereo unspecified), the MIC80 against Candida albicans came to 0.031 µg/mL (≈ 0.0583 µM); against Candida parapsilosis, 0.016 µg/mL (≈ 0.0301 µM); in the assay with Candida tropicalis it was 1 µg/mL (≈ 1.88 µM); with Cryptococcus neoformans it was 64 µg/mL (≈ 120 µM); in the assay on Aspergillus fumigatus, 64 µg/mL (≈ 120 µM); in the assay with Fonsecaea pedrosoi, 0.5 µg/mL (≈ 0.941 µM). Further, the MIC80 in the assay on Trichophyton rubrum is 16 µg/mL (≈ 30.1 µM); against Sporothrix schenckii it was 64 µg/mL (≈ 120 µM).

For the molecule `CCc1ccc(Cn2ncn(-c3ccc(CN(C)CC(O)(Cn4cncn4)c4ccc(F)cc4F)cc3)c2=O)cc1` (stereo unspecified), the MIC80 in the assay with Candida albicans was found to be 0.008 µg/mL (≈ 0.0143 µM); against Candida parapsilosis, 0.008 µg/mL (≈ 0.0143 µM); in the assay with Candida tropicalis, 0.25 µg/mL (≈ 0.447 µM); with Cryptococcus neoformans, 0.5 µg/mL (≈ 0.893 µM); in the assay on Aspergillus fumigatus, 8 µg/mL (≈ 14.3 µM); with Fonsecaea pedrosoi, 0.25 µg/mL (≈ 0.447 µM). For the same molecule, the MIC80 against Trichophyton rubrum is 0.5 µg/mL (≈ 0.893 µM); against Sporothrix schenckii it was 64 µg/mL (≈ 114 µM).

The values above are taken from ChEMBL document CHEMBL1146065, “Structure-based optimization of azole antifungal agents by CoMFA, CoMSIA, and molecular docking” (2006).
